# Counter-ions that a name gives are not always drawn. Like-named read-outs stand apart in the source and are kept apart here.
# How the values were obtained:
# NAMPT = biological target: T1, NAMPT (Homo sapiens, UniProt P43490); test: CycLex NAMPT Colorimetric Assay; format: biochemical; conditions: for IC50: CycLex NAMPT Colorimetric Assay Kit, read-out: NAMPT Inhibition IC50
# T1 construct: purchased MBL International Corporation (CycLex NAMPT Colorimetric Assay Kit Ver.2)
# Method: The ability of the compounds of the disclosure to inhibit NAMPT was determined using the CycLex NAMPT Colorimetric Assay Kit Ver.2 by MBL International Corporation.
# The assay detects NAMPT activity in recombinant NAMPT or endogenous NAMPT immunoprecipiated from cell lysates according to the scheme shown in FIG. 3. In this method, NAMPT converts nicotinamide to nicotinamide mononucleotide (“NMN”). Subsequently, nicotinamide mononucleotide adenylyltransferase 1 (“NMNAT1”) converts NMN to NAD^+. Resultant NAD^+ can be measured by enzyme cycling reaction using alcohol dehydrogenase (“ADH”), diaphorase and WST-1.
# [1] = tested on: human pulmonary artery smooth muscle cells (hPASMCs); test: BrdU Assay (proliferation), hPASMC; format: cell-based
# Method: (§1) The effect of the compounds disclosed herein on the viability, proliferation, and apoptosis of human pulmonary artery endothelial cells (“hPAECs,”) and human pulmonary artery smooth muscle cells (“hPASMCs”) was determined using the PrestoBlue Assay (viability), CYQuant Direct or BrdU Assay (proliferation) or Tunel Assay (apoptosis), as described below.
# (§2) HPAECs (1×10^4 cells/well) or HPASMCs (2.5×10^3 cells/well) were seeded in 96-well plates for 24 h in full-serum tissue culture medium. The full medium was removed prior to treatment with a NAMPT inhibitor prepared in medium containing 0.1% serum. NAMPT inhibitors were solubilized in 100% DMSO, unless otherwise indicated, prior to preparation of the dose response curve in 100% DMSO. The treatment dose response curve was diluted in 0.1% serum tissue culture medium and administered to cells for 24 h. DMSO diluted in the same medium was used as the vehicle control. Cell viability was measured according to the manufacturer's protocol by adding the PrestoBlue Cell Viability Reagent (ThermoFisher Scientific, #A13261) to cells for 20 min at 37° C. in a tissue culture incubator, followed by reading fluorescence at ex560/em590. Cell proliferation was measured, either in the same wells or in separate experiments, by adding the CyQuant Direct Confirmation Reagent (ThermoFisher Scientific, #C35011) for 1 h at 37° C. in a tissue culture incubator, followed by reading fluorescence at ex485/em538. Proliferation was also measured, in separate experiments, using the BrdU Cell Proliferation Assay (Calbiochem, #QIA58). After treatment with a NAMPT inhibitor for 24 h, BrdU was added to the cells in the presence of the inhibitor, for an additional 24 h and BrdU incorporation was detected according to the manufacturer's protocol. Apoptosis was analyzed by seeding cells (1×10^5 cells/well) in 6-well plates for 24 h in full-serum medium, followed by treatment with a NAMPT inhibitor for 24 h in full-serum medium. Tunel staining and detection was performed using the Tunel Assay Kit (Abcam, #ab66110) according to the manufacturer's protocol.
# [2] = tested on: human pulmonary artery endothelial cells (hPAECs); test: BrdU Assay (proliferation), hPAEC; format: cell-based; conditions: for effect on HPAEC proliferation (BrdU assay): dose response, FIG. 6; for IC50: Homo sapiens, Endothelial cell
# Method: as §1, §2
# [3] = Solubility (2.5% v/v DMSO/water); format: physicochemical
# [4] = tested on: human pulmonary artery endothelial cells (hPAECs); test: PrestoBlue Assay (viability), hPAEC; format: cell-based; conditions: for effect on HPAEC viability: dose response, FIG. 4
# Method: as §1, §2
# [5] = tested on: human pulmonary artery endothelial cells (hPAECs); test: CyQUANT Direct Assay (proliferation), hPAEC; format: cell-based; conditions: for effect on HPAEC proliferation (CYQuant Direct assay): dose response, FIG. 5
# Method: as §1, §2
# T1 sequence (P43490 whole entry): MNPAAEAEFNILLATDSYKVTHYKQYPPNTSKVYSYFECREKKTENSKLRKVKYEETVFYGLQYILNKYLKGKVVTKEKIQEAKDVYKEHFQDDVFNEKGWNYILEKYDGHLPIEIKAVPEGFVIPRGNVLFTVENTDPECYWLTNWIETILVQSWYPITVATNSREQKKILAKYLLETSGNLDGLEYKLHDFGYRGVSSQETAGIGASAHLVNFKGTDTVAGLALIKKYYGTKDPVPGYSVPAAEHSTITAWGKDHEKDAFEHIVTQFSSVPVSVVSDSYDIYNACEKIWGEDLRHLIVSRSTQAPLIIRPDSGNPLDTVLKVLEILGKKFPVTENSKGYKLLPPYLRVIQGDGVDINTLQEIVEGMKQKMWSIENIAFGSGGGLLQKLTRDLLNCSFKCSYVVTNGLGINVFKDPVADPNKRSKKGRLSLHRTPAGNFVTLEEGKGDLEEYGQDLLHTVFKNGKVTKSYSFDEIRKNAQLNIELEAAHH
SMILES,IC50 (NAMPT),further results
O=C(CCc1cccnc1)NCCCCCCn1c(-c2ccccc2)cc2ccccc21,~10 µM,–
[2H][C@@H](C(=O)NCCCCCCn1c(-c2ccccc2)cc2ccccc21)[C@@H]([2H])c1cccnc1,0.092 µM,–
O=C(/C=C/c1cccnc1)NCCCCCCn1c(-c2ccccc2)cc2cc(O)c(O)cc21,0.124 µM,–
O=C(/C=C/c1cccnc1)NCCCCCCn1c(-c2ccccc2)cc2cc3c(cc21)OCO3,0.386 µM,–
Cc1cc2ccccc2n1CCCCCCNC(=O)CCc1cccnc1,0.97 µM,–
Cc1ccc2c(ccn2CCCCCCNC(=O)CCc2cccnc2)c1,1.53 µM,–
[2H][C@@H](C(=O)NCCCCCC(=O)N1CCc2cc(O)ccc21)[C@@H]([2H])c1cccnc1,0.189 µM,–
COc1ccc2c(ccn2CCCCCCNC(=O)CCc2cccnc2)c1,0.674 µM,–
O=C(/C=C/c1cccnc1)NCCCCCCn1ccc2cccnc21,1.54 µM,–
O=C(CCc1cccnc1)NCCCCCCn1ccc2cccnc21,2.4 µM,–
CC1Cc2ccccc2N1C(=O)CCCCCNC(=O)/C=C/c1cccnc1 (stereo not shown),–,IC50 ([1]; Homo sapiens): 51.9 µM; effect on HPAEC proliferation (BrdU assay) [2]: dose-dependently decrease cell proliferation
[2H][C@@H](C(=O)NCCCCCCn1ccc2cc(OCc3ccccc3)ccc21)[C@@H]([2H])c1cccnc1 (relative stereo) [DGMS-RAR-6 D2],0.233 µM,–
Cc1cc2ccccc2n1CCCCCCNC(=O)/C=C/c1cccnc1 [5.2.3a],0.082 µM,–
O=C(CCc1cccnc1)NCCCCCCn1ccc2ccncc21 [5.2.3b H2],2.14 µM,–
O=C(/C=C/c1cccnc1)NCCCCCCn1ccc2ccncc21 [5.2.3b],0.23 µM,–
O=C(/C=C/c1cccnc1)NCCCCCCN1c2ccccc2CCc2cc(Br)ccc21 [5.2.3d],0.071 µM,–
O=C(/C=C/c1cccnc1)NCCCCCCN1c2ccccc2CC1c1ccccc1 (stereo not shown) [5.2.3e],0.026 µM,–
[2H][C@@H](C(=O)NCCCCCCn1ccc2cc(OC)ccc21)[C@@H]([2H])c1cccnc1 [5.2.3f D2],0.665 µM,–
Cc1ccc2c(ccn2CCCCCCNC(=O)/C=C/c2cccnc2)c1 [5.2.3g],0.17 µM,–
COC(=O)Cc1cn(CCCCCCNC(=O)/C=C/c2cccnc2)c2ccccc12 [5.2.3h],0.1 µM,–
O=C(/C=C/c1cccnc1)NCCCCCCn1ccc2cnccc21 [5.2.3k],0.11 µM,–
O=C(/C=C/c1cccnc1)NCCCCCCn1ccc2cc(I)ccc21 [5.2.3l],0.155 µM,–
O=C(CCc1cccnc1)NCCCCCCn1ccc2cc(O)ccc21 [5.2.3t H2],1.2 µM,–
CC1Cc2ccccc2N1C(=O)CCCCCNC(=O)/C=C/c1cccnc1 (stereo not shown) [DGMS-RAR1],0.049 µM,–
[2H][C@@H](C(=O)NCCCCCC(=O)N1c2ccccc2CC1C)[C@@H]([2H])c1cccnc1 (stereo partly shown) [DGMS-RAR-1 D2],0.632 µM,–
CC1Cc2ccccc2N1CCCCCCNC(=O)/C=C/c1cccnc1 (stereo not shown) [DGMS-RAR-1•HCl],0.047 µM,–

SMILES,IC50 (NAMPT),further results
CC1Cc2ccccc2N1C(=O)CCCCCNC(=O)/C=C/c1cccnc1 (stereo not shown) [DGMS-RAR-1•HO3SMe],0.034 µM,–
O=C(/C=C/c1cccnc1)NCCCCCCN1c2ccccc2CCc2ccccc21 [DGMS-RAR-2],0.08 µM,IC50 ([1]; Homo sapiens): 1.5 µM; IC50 [2]: 1.31 µM; effect on HPAEC proliferation (BrdU assay) [2]: dose-dependently decrease cell proliferation
O=C(/C=C/c1cccnc1)NCCCCCC(=O)N1CCCCc2ccccc21 [DGMS-RAR-3],0.072 µM,–
[2H][C@@H](C(=O)NCCCCCC(=O)N1C[Si](C)(C)c2ccccc21)[C@@H]([2H])c1cccnc1 [DGMS-RAR-4D2],2.31 µM,–
C[Si]1(C)CN(C(=O)CCCCCNC(=O)CCc2cccnc2)c2ccccc21 [DGMS-RAR-4H2],1.59 µM,–
C[Si]1(C)CN(C(=O)CCCCCNC(=O)/C=C/c2cccnc2)c2ccccc21 [DGMS-RAR-4],0.141 µM,–
O=C(CCc1cccnc1)NCCCCCCN1c2ccccc2CCc2ccccc21 [DGMS-RAR-5.2.3c H2],0.1 µM,–
[2H][C@@H](C(=O)NCCCCCC(=O)N1c2ccccc2[Si](CC)(CC)C1C)[C@@H]([2H])c1cccnc1 (stereo partly shown) [DGMS-RAR-5D2],0.668 µM,–
CC[Si]1(CC)c2ccccc2N(C(=O)CCCCCNC(=O)CCc2cccnc2)C1C (stereo not shown) [DGMS-RAR-5H2],0.368 µM,–
CC[Si]1(CC)c2ccccc2N(C(=O)CCCCCNC(=O)/C=C/c2cccnc2)C1C (stereo not shown) [DGMS-RAR-5],0.011 µM,IC50 ([1]; Homo sapiens): 102 µM; effect on HPAEC proliferation (BrdU assay) [2]: dose-dependently decrease cell proliferation
CC[Si]1(CC)c2ccccc2N(C(=O)CCCCCNC(=O)/C=C/c2cccnc2)C1C (stereo not shown) [DGMS-RAR-5•O3SMe],0.014 µM,inhibition at 10 µM (NAMPT): 99%; Solubility (2.5% v/v DMSO/water) [3]: Good
CC[Si]1(CC)c2ccccc2N(C(=O)CCCCCNC(=O)/C=C/c2cccnc2)C1C (stereo not shown) [DGMS-RAR-5•OTs],0.0103 µM,–
O=C(CCc1cccnc1)NCCCCCCn1ccc2cc(OCc3ccccc3)ccc21 [DGMS-RAR-6 H2],0.582 µM,–
O=C(/C=C/c1cccnc1)NCCCCCCn1ccc2cc(OCc3ccccc3)ccc21 [DGMS-RAR-6],1.01 µM,–
O=C(/C=C/c1cccnc1)NCCCCCCn1ccc2cc(OCc3ccccc3)ccc21 [DGMS-RAR-6•HCl],~0.1 µM,inhibition at 10 µM (NAMPT): 97%
O=C(/C=C/c1cccnc1)NCCCCCCn1ccc2cc(OCc3ccccc3)ccc21 [DGMS-RAR-6•HO3SMe],~0.1 µM,% NAMPT Inhibition at 10 μM (NAMPT): 97%
O=C(/C=C/c1cccnc1)NCCCCCC(=O)N1c2ccccc2CC1c1ccccc1 (stereo not shown) [DGMS-RAR-7],0.041 µM,"effect on HPAEC viability [4]: dose-dependently decrease cell viability; IC50 ([4]; hPAEC, 24 h treatment): 1.59 µM; effect on HPAEC proliferation (CYQuant Direct assay) [5]: dose-dependently decrease cell proliferation; IC50 ([5]; hPAEC, 24 h treatment): 1 µM; IC50 [1]: 35400 µM; IC50 [2]: 95.8 µM; effect on HPAEC proliferation (BrdU assay) [2]: dose-dependently decrease cell proliferation"
O=C(O)Cc1cn(CCCCCCNC(=O)/C=C/c2cccnc2)c2ccccc12 [DGMS-RAR-PEG2A],0.04 µM,inhibition at 10 µM (NAMPT): 98%
CCOC(=O)Cc1cn(CCCCCCNC(=O)/C=C/c2cccnc2)c2ccccc12 [DGMS-RAR-PEG2E],< 0.01 µM,inhibition at 10 µM (NAMPT): 99%
COCCOCCOCCOCCOC(=O)Cc1cn(CCCCCCNC(=O)/C=C/c2cccnc2)c2ccccc12 [DGMS-RAR-PEG2],0.021 µM,effect on HPAEC viability [4]: dose-dependently decrease cell viability; inhibition at 10 µM (NAMPT): 97%; Solubility (2.5% v/v DMSO/water) [3]: Moderate
O=C(O)CC1CN(C(=O)CCCCCNC(=O)/C=C/c2cccnc2)c2ccccc21 (stereo not shown) [DGMS-RAR-PEG3A],1.05 µM,–
CCOC(=O)CC1CN(C(=O)CCCCCNC(=O)/C=C/c2cccnc2)c2ccccc21 (stereo not shown) [DGMS-RAR-PEG3E],0.044 µM,–
COCCOCCOCCOCCOC(=O)CC1CN(C(=O)CCCCCNC(=O)/C=C/c2cccnc2)c2ccccc21 (stereo not shown) [DGMS-RAR-PEG3],0.021 µM,effect on HPAEC viability [4]: dose-dependently decrease cell viability; effect on HPAEC proliferation (CYQuant Direct assay) [5]: dose-dependently decrease cell proliferation; Solubility (2.5% v/v DMSO/water) [3]: Good
COCCOCCOCCOCCOC(=O)CCC(=O)Oc1ccc2c(ccn2CCCCCCNC(=O)/C=C/c2cccnc2)c1 [DGMS-RAR-mPEG3],0.02 µM,inhibition at 10 µM (NAMPT): 97%; Solubility (2.5% v/v DMSO/water) [3]: good
Cl.O=C(/C=C/c1cccnc1)NCCCCCCn1c(-c2ccccc2)cc2ccccc21 [DGMS-RARI•HCl],0.032 µM,% NAMPT Inhibition at 10 μM (NAMPT): 98%; Solubility (2.5% v/v DMSO/water) [3]: Moderate
O=C(/C=C/c1cccnc1)NCCCCCCn1c(-c2ccccc2)cc2ccccc21 [DGMS-RARI•HO3SMe],0.012 µM,% NAMPT Inhibition at 10 μM (NAMPT): 98%

# Reference: patent US11584766B2, “Nicotinamide phosphoribosyltransferase inhibitors and methods for use of the same” (THE TRUSTEES OF INDIANA UNIVERSITY, priority 2018, dated 2023)
